Read-outs that look alike come from different tables or passages of the source.
Columns and labels:
VMAT2 = VMAT2 (Macaca fascicularis, UniProt A0A2K5UVB8); assay: VMAT2 occupancy in NHP brain after i.v. NBI-750142, [^18F]AV-133 PET; assay type: in vivo, cynomolgus monkeys (Macaca fascicularis); details: for receptor occupancy at 0.084 mg/kg / receptor occupancy at 0.52 mg/kg / receptor occupancy at 0.026 mg/kg / receptor occupancy at 0.26 mg/kg / receptor occupancy at 0.78 mg/kg: cynomolgus monkey
Chain of VMAT2 (A0A2K5UVB8 entry or part of it): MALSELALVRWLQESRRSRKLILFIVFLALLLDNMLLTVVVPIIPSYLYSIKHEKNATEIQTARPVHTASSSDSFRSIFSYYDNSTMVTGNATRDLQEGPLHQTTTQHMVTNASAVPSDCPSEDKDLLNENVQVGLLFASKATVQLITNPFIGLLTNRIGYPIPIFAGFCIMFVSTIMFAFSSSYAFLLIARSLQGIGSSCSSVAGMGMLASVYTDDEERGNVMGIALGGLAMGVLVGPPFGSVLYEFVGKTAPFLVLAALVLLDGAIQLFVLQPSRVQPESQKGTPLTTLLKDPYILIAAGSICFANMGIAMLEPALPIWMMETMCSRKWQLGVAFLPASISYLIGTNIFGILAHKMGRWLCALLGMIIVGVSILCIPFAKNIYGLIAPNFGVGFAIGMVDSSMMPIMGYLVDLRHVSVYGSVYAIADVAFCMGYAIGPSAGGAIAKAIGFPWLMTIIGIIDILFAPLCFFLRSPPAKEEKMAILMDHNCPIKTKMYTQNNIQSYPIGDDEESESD
Excerpt: The aim of this study was to assess the relationship between NBI-750142 dose/plasma concentration and VMAT2 occupancy with [^18F]AV-133 using PET in non-human primate (NIP) brain. A radioligand, [^18F]AV-133, has been used to image and quantify brain VMAT2 in vivo.
Three non-naïve cynomolgus monkeys (Macaca fascicularis) were used in this study. The animals were judged to be in good health before the start of the study. At study origination the animals were 7 (female, EC865), 8 (male, GC786) and 9 (female, LC206) years old and weighed 4.2, 7.0, and 5.4 kg, respectively.
The animals were imaged with [^18F]AV-133 at baseline with vehicle (0.9% saline) and post NBI-750142 blockade on separate days. Vehicle and NBI-750142 were administered as an intravenous (i.v.) bolus followed by a constant infusion over 3 hours. [^18F]AV-133 was injected as an i.v. bolus, 1 h after administration of vehicle/NBI-750142. The design study is summarized below Table 2-1.
Dynamic data were acquired in the MicroPET Focus-220 camera (Siemens Microsystems, Knoxville, TN). Emission data were collected for 120 min post-injection and reconstructed into a series of 33 frames and all standard corrections were applied: normalization, random, scatter and attenuation. Dynamic brain PET images were transferred and analyzed using the image processing PMOD software package v3.802 (PMOD Technologies, Zurich, Switzerland). The PET images were rigidly aligned to a previously acquired animal's brain T1 MRI and then spatially normalized to a common cynomolgus MRI template for anatomical brain region definition.
Volumes of interest (VOIs) defined in the cynomolgus template space (see e.g., Ballanger et al. Neuroimage, 2013, 7:26-43) were applied to the spatially normalized PET images to compute time-activity curves (TACs, kBq/cm^3) for caudate (0.96 cm^3), putamen (1.34 cm^3) and cerebellum (3.81 cm^3). TACs and images (averaged between 60-120 min) were presented in Standard Uptake Value (SUV) units (g/mL) normalized by the weight of the animal and the injected dose.
Non-invasive Logan graphical analysis (start time of fit, t*=35 min) was used to estimate regional non-displaceable binding potential (BPND) using the TACs in the caudate and putamen, with the cerebellar cortex as the reference TAC. BPND was calculated in the in the caudate and putamen across baseline and NBI-750142 scans. Target occupancy was calculated according to Equation 1-1.
where h is the Hill slope (h=1.0) and C is the mean of observed plasma concentrations during the scanning interval (60 to 180 minutes post-dose).

[1] = NBI-750142 plasma concentration in healthy subjects; assay type: in vivo; details: human, 18 h post single oral dose, across cohorts, approximately, read-out: NBI-750142 plasma concentrations at T2

COc1cc2c(cc1OC)[C@H]1CN(C)[C@H](CC(C)(C)C)CN1CC2 [NBI-750142]
[^18F]AV-133 BPND (VMAT2; animal EC865, Caudate, NBI-750142 0.084 mg/kg): 2.39
[^18F]AV-133 BPND (VMAT2; animal EC865, Caudate, NBI-750142 0.52 mg/kg): 1.01
[^18F]AV-133 BPND (VMAT2; animal EC865, Putamen, NBI-750142 0.084 mg/kg): 3.10
[^18F]AV-133 BPND (VMAT2; animal EC865, Putamen, NBI-750142 0.52 mg/kg): 1.18
[^18F]AV-133 BPND (VMAT2; animal GC786, Caudate, NBI-750142 0.026 mg/kg): 3.10
[^18F]AV-133 BPND (VMAT2; animal GC786, Caudate, NBI-750142 0.26 mg/kg): 2.22
[^18F]AV-133 BPND (VMAT2; animal GC786, Caudate, NBI-750142 0.78 mg/kg): 0.33
[^18F]AV-133 BPND (VMAT2; animal GC786, Putamen, NBI-750142 0.026 mg/kg): 3.53
[^18F]AV-133 BPND (VMAT2; animal GC786, Putamen, NBI-750142 0.26 mg/kg): 2.39
[^18F]AV-133 BPND (VMAT2; animal GC786, Putamen, NBI-750142 0.78 mg/kg): 0.43
[^18F]AV-133 BPND (VMAT2; animal LC206, Caudate, NBI-750142 0.26 mg/kg): 1.42
[^18F]AV-133 BPND (VMAT2; animal LC206, Putamen, NBI-750142 0.26 mg/kg): 1.61
[^18F]AV-133 binding post administration of NBI-750142 (VMAT2; caudate and putamen vs baseline): dose-dependent decrease
receptor occupancy at 0.084 mg/kg (VMAT2; iv, read-out: % Occ, animal EC865, Caudate, 0.084 mg/kg): 38.7%
receptor occupancy at 0.52 mg/kg (VMAT2; iv, read-out: % Occ, animal EC865, Caudate, 0.52 mg/kg): 74.2%
receptor occupancy at 0.084 mg/kg (VMAT2; iv, read-out: % Occ, animal EC865, Putamen, 0.084 mg/kg): 40.9%
receptor occupancy at 0.52 mg/kg (VMAT2; iv, read-out: % Occ, animal EC865, Putamen, 0.52 mg/kg): 77.5%
receptor occupancy at 0.026 mg/kg (VMAT2; iv, read-out: % Occ, animal GC786, Caudate, 0.026 mg/kg): 31.1%
receptor occupancy at 0.26 mg/kg (VMAT2; iv, read-out: % Occ, animal GC786, Caudate, 0.26 mg/kg): 50.8%
receptor occupancy at 0.78 mg/kg (VMAT2; iv, read-out: % Occ, animal GC786, Caudate, 0.78 mg/kg): 92.7%
receptor occupancy at 0.026 mg/kg (VMAT2; iv, read-out: % Occ, animal GC786, Putamen, 0.026 mg/kg): 25.8%
receptor occupancy at 0.26 mg/kg (VMAT2; iv, read-out: % Occ, animal GC786, Putamen, 0.26 mg/kg): 49.7%
receptor occupancy at 0.78 mg/kg (VMAT2; iv, read-out: % Occ, animal GC786, Putamen, 0.78 mg/kg): 90.9%
receptor occupancy at 0.26 mg/kg (VMAT2; iv, read-out: % Occ, animal LC206, Caudate, 0.26 mg/kg): 64.5%
receptor occupancy at 0.26 mg/kg (VMAT2; iv, read-out: % Occ, animal LC206, Putamen, 0.26 mg/kg): 63.7%
receptor occupancy at 0.084 mg/kg (VMAT2; read-out: Target Occupancy, Mean of Putamen and Caudate, EC865, 0.084 mg/kg): 40%
receptor occupancy at 0.52 mg/kg (VMAT2; read-out: Target Occupancy, Mean of Putamen and Caudate, EC865, 0.52 mg/kg): 76%
receptor occupancy at 0.026 mg/kg (VMAT2; read-out: Target Occupancy, Mean of Putamen and Caudate, GC786, 0.026 mg/kg): 28%
receptor occupancy at 0.26 mg/kg (VMAT2; read-out: Target Occupancy, Mean of Putamen and Caudate, GC786, 0.26 mg/kg): 50%
receptor occupancy at 0.78 mg/kg (VMAT2; read-out: Target Occupancy, Mean of Putamen and Caudate, GC786, 0.78 mg/kg): 92%
receptor occupancy at 0.26 mg/kg (VMAT2; read-out: Target Occupancy, Mean of Putamen and Caudate, LC206, 0.26 mg/kg): 64%
50% effective total concentration (EC50) of plasma NBI-750142 for VMAT2 occupancy (VMAT2; striatum, Emax model, Hill slope 1, cynomolgus monkey PET): 11 ng/mL
concentration at 18 h [1]: 0.3 to 10 ng/mL

Reference: patent publication US20250064990A1, “METHODS OF SCREENING FOR VMAT2 INHIBITORS” (Neurocrine Biosciences, Inc., priority 2021, published 2025)
